Measured values taken from BindingDB's records for doi:10.1007/s00213-002-1073-7 (WestfÄLische Wilhelms-Universit&Auml, 2002).

Assays:
[1] = molecular target: Delta-type opioid receptor (Homo sapiens, UniProt P41143)
[2] = molecular target: 5-hydroxytryptamine receptor 2C (Homo sapiens, UniProt P28335)
5-hydroxytryptamine receptor 2C, sequence (P28335 whole entry): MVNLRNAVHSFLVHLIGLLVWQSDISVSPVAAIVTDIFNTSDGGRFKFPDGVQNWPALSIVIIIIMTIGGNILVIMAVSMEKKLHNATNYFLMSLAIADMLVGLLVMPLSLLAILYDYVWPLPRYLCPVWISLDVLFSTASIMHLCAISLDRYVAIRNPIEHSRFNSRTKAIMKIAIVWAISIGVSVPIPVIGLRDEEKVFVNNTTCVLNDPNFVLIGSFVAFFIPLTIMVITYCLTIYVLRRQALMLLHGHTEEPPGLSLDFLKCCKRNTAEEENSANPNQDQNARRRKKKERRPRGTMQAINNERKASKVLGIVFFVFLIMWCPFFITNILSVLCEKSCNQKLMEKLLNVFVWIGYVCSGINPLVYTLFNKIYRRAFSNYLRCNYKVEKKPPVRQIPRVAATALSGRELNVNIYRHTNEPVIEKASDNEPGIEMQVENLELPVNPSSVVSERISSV

Delta-type opioid receptor, sequence (P41143 whole entry): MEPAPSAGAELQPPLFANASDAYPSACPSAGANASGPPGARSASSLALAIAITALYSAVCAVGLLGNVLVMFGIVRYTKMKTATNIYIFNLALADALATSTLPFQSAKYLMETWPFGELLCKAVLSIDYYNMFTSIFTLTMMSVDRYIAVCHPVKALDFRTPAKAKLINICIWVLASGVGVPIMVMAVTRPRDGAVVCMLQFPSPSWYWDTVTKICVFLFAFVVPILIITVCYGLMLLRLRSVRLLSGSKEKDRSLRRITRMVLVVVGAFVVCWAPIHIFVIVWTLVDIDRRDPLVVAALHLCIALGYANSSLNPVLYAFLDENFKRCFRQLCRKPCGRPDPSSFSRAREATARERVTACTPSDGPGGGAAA

Ki [1]: 36.5 nM
Ki [2]: 2560 nM
Structure (SMILES): O=c1cc(O)cc2oc(-c3ccc(O)c(-c4c(O)cc(O)c5c(=O)cc(-c6ccc(O)cc6)oc45)c3)cc(O)c1-2
